The values that follow come from patent US12589103B2, “Antimicrobial and antiviral effects of C2-C7 alkyl boronic acids” (CORNELL UNIVERSITY, priority 2019, dated 2026).

Molecules are shown by their SMILES. “Also recorded” adds a separate entry of the source.

Data set [1] deals with enteric pathogens (E. coli, Salmonella, Listeria monocytogenes, Klebsiella). Nature of the data set: Bacterial growth panel, OD600 growth-curve AUC ratio (heat map). The class given is cell-based. The following applies: for antibacterial activity / potency against enteric pathogens (growth, AUC+test compound:AUC−test compound): 40 mM (BA, EBA, PBA), 20 mM (BBA), 10 mM (PeBA), 5 mM (HBA, SBA), 1 mM (OBA), 0.5 mM (DBA), 2 mM (DoDBA), 20 mM (FMPBA), 24-48 hrs; for selectivity for Gram Negative enteropathogens: growth panel.

The subject of data set [2] is Gram Positive aerobes and probiotic species (Lactobacillus, Bifidobacteria). The data set can be described thus: Bacterial growth panel, impact on non-target species (selectivity). The following applies: for selectivity against Probiotic spp: compared with BA. Format: cell-based.
For a further data set, the system named is Listeria monocytogenes. The data set can be described thus: Bacterial growth panel, Listeria. Format: cell-based. Here is the method:
The control sample contained 40 mM NaCl.
Growth of bacteria with or without addition of C2-C8 C10, and C12 alkyl boronic acids, BA, or FMPBA was monitored by readings at OD600. […] The area under the curve (“AUC”) of the growth curve was calculated and the results were expressed as AUC+test compound:AUC−test compound.

For data set [3], the system named is Feline Infectious Peritonitis Virus (FIPV) Black (TN-406). Nature of the data set: FIPV replication and syncytium formation, immunofluorescence. Format: cell-based, Feline Coronavirus type I. The following applies: 10, 20, 30, 40 mM; Feline Lung cells, 18 h post-infection.
For another data set, the system named is Henle-407 cells. The following applies: higher concentrations.
For another data set, the system named is Feline Lung cells. The data set can be described thus: Cytotoxicity in FIPV infected Feline Lung cells.
Data set [4] deals with AIEC and cancer associated E. coli. The data set can be described thus: Soft agar motility assay, E. coli. Format: cell-based. The following applies: 10 h, AIEC NC101, 541-1, cancer associated E. coli. Here is the method: The ability of ABA C1-3 and BA to impact the motility of E. coli and Salmonella was evaluated using sloppy agar treated with and without BA and C1-C3 alkyl boronic acids. Motility is strongly linked to the virulence phenotype of these bacterial strains. E. coli was grown overnight at 37° C. in LB broth. Soft agar plates (1% tryptone, 0.5% NaCl, 0.25% agar) were prepared the day before the assay was carried out. Sterile NaCl (control), boric or boronic acid stock solution was added into the agar right before pouring the plates. The overnight cultures of E. coli were transferred (3 μl) on to the center of each plate, followed by incubation of the plates at 37° C. for 10 h. E. coli motility was quantified by measuring the diameter of the circular swarming area formed by the growing motile bacteria.

The subject of data set [5] is probiotic Lactobacillus spp. The data set can be described thus: Growth of probiotic Lactobacillus strains. The following applies: three Lactobacillus strains.
Another data set has as its system FIPV. The following applies: known drugs; cited from earlier work.

In the case of `CCCCCCCCB(O)O` [OBA, octyl boronic acid, reference compound], the entries for the “antibacterial activity / potency against enteric pathogens (growth, AUC+test compound:AUC−test compound)” value (“antibacterial activity / potency” below) in [1] and in data set [1] (listed as ABA C8) were “marked decrease in antibacterial activity” and “much less potency than C2-C7 alkyl boronic acids”, respectively.

For `CCCCCCB(O)O` [HBA, hexyl boronic acid], in [1], the “antibacterial activity / potency” value was “high potency vs enteropathogens while somewhat sparing probiotic species” and the “selectivity for Gram Negative enteropathogens” value is reported as “highest”. For the same molecule, the “selectivity against Probiotic spp” value in [2] is reported as “more selective than BA”. In addition, the “selectivity of activity against Listeria monocytogenes” value with Listeria monocytogenes is given as “selectivity apparent”. Besides, the “replication and syncytium formation of FIPV” value in [3] is “inhibited replication and syncytium formation of FIPV in infected cells; also recorded: antiviral activity was observed at lower doses without cytotoxicity”. For the same molecule, the “cytotoxicity in Henle cells” value in the data set on Henle-407 cells is on record as “cytotoxic at higher concentrations”. The “cytotoxicity in antiviral assay” value with Feline Lung cells was “Cytotoxicity was observed”.

Consider `CB(O)O` [MBA, methyl boronic acid, reference compound], for which the “motility of E. coli” value in data set [4] is reported as “had less impact”. In [5], the “growth of probiotic Lactobacillus spp” value is given as “do not suppress growth”.

As to `Cc1ccc(B(O)O)c(F)c1` [FMPBA, 2-fluro-4-methlyphenylboronic acid, reference compound], the “antibacterial activity / potency” value in [1] was “more generalized and potent antibacterial activity than C2-C7 alkyl boronic acid compounds; also recorded: bacteriocidal”. Further, the “selectivity: impact on Gram Positive aerobes and probiotic species” value in data set [2] (same concentrations as growth panel) was “not selective and killed more Gram Positive aerobes and probiotic species than C2-C7 alkyl boronic acid compounds; also recorded: minimally selective”.

With `CCCCB(O)O` [BBA, butyl boronic acid], in [1], the “antibacterial activity / potency” value is reported as “high potency vs enteropathogens while somewhat sparing probiotic species” and the “selectivity for Gram Negative enteropathogens” value was “highest”. For the same molecule, the “selectivity against Probiotic spp” value in [2] was “more selective than BA”. In addition, in the data set on Listeria monocytogenes, the “selectivity of activity against Listeria monocytogenes” value is “selectivity apparent”. Further, the “replication and syncytium formation of FIPV” value in data set [3] was “inhibited replication and syncytium formation of FIPV in infected cells; also recorded: antiviral activity was observed at lower doses without cytotoxicity”. For the same molecule, the “cytotoxicity in antiviral assay” value in the data set on Feline Lung cells is “Cytotoxicity was observed”.

Consider `CCCCCCCCCCB(O)O` [DBA, decyl boronic acid, reference compound], for which the “antibacterial activity / potency” value in data set [1] is given as “marked decrease in antibacterial activity”; in [1] (listed as C10), “much less potency than C2-C7 alkyl boronic acids”.

For the molecule `N#C[C@@]1(c2ccc3c(N)ncnn23)O[C@H](CO)[C@@H](O)[C@H]1O` [GS-441524], the “efficacy against FIPV” value in the data set on FIPV is “some efficacy against FIPV”.

In the case of `CCCCCCCB(O)O` [SBA, heptyl boronic acid], the “selectivity for Gram Negative enteropathogens” value in data set [1] is “highest”.

Turning to `CCCCCB(O)O` [PeBA, pentyl boronic acid], the “cytotoxicity in Henle cells” value in the data set on Henle-407 cells is recorded as “cytotoxic at higher concentrations”.
